Values of other authors as cited in patent EP1228757B1 (Uni-Pharma Kleon Tsetis Pharmaceutical Laboratories S.A., priority 2001, dated 2002).

Tested on: albino rats
Conditions: endo-peritoneally administered to albino rats

Molecule | LD50
Glycerol formal | 3000 mg/kg
CC(O)CO (centres unmarked) [Propylene glycol] | higher than 8000 mg/kg
